Measured values reported in paper PMC9862186 (International Journal of Molecular Sciences, 2023).

Assays:
in vivo [1] = assay: in vivo
Protocol: A saline solution (0.9% NaCl) was added to a mixture of cinnamaldehyde (density = 1.05 g/mL) and Cremophor® RH 40 (1:1 v/v) in order to obtain a 12.5 mg/mL cinnamaldehyde emulsion in the presence of ethanol (10% of final volume). A group (n = 4) of male Wistar rats (200–250 g) fasted for 24 h was anesthetized during the experimental period and received 0.4 mL via a femoral intravenous infusion (rate = 0.2 mL/min; 2 min) of 12.5 mg/mL cinnamaldehyde emulsion (20 mg/kg cinnamaldehyde dose).
(§1) At the end of the infusions and at fixed time points, CSF samples (50 μL) were withdrawn and blood samples (100 μL) were collected. The CSF was withdrawn using the cisternal puncture method described by van den Berg et al., which requires a single needle stick and allows the collection of serials (40–50 μL) CSF samples that are virtually blood-free. A total volume of about a maximum of 150 μL of CSF/rat (i.e., three 50 μL samples/rat) was collected during the experimental session, choosing the time points (n = 3–5, taking into account a maximum of three collections per rat) in order to allow the restoring of the CSF physiological volume.
The samples were centrifuged at 12,500× g for 5 min, then about 300 μL of supernatant were withdrawn and further centrifuged. […] As a control, a blood sample (100 μL) was collected by each rat before the administrations of the drugs. The control samples were immediately added to 300 μL of ice-cold CH3CN in the absence of internal standard, then treated as described above.
For cinnamaldehyde analysis the blood samples were hemolyzed immediately after their collection with 500 μL of ice-cold water, and then 50 μL of 10% sulfosalicylic acid and 50 μL of internal standard (100 μM carbazole dissolved in a water-methanol mixture 50:50 v/v) was added. The samples were extracted twice with 1 mL of water-saturated ethyl acetate, and, after centrifugation at 12,500× g for 10 min, the organic layer was reduced to dryness under a mild nitrogen stream at room temperature. Then, 200 μL of a water-acetonitrile mixture (50:50 v/v) were added, and after centrifugation, 10 μL were analyzed via HPLC (see below) for cinnamaldehyde detection. As a control, a blood sample (100 μL) was collected by each rat before the administration of the drug. The control samples were treated as described above in the absence of internal standard.
(§2) In particular, all the AUC values referred to the bloodstream were calculated by the trapezoidal method within the last time point detected, and the remaining area was obtained as the ratio between the compound concentration detected at the last time point and the elimination constant (kel), which was obtained from the slope of the semilogarithmic plots (−slope × 2.3). The clearance (Cl) and distribution volume (Vd) values were calculated according to the non-compartmental model as the ratios “dose/AUC” and “Cl/kel”, respectively, where kel is the elimination constant obtained by the slope of semilogarithmic plot.
The chromatographic apparatus consisted of a modular system (model LC-10 AD VD pump and model SPD-10A VP variable wavelength UV−vis detector; Shimadzu, Kyoto, Japan) and an injection valve with 20 μL sample loop (model 7725; Rheodyne, IDEX, Torrance, CA, USA). Separations were performed at room temperature on a 5 μm Hypersil BDS C-18 column (150 mm × 4.6 mm i.d.; Alltech Italia Srl, Milan, Italy) equipped with a guard column packed with the same Hypersil material. The volume injection was 10 μL. Data acquisition and processing were performed on a personal computer using CLASS-VP Software, version 7.2.1 (Shimadzu Italia, Milan, Italy).
The detector was set at 205 nm.

in vivo [2] = settings: Wistar, rat
Protocol: (§3) Each type of formulation was administered to a group of four rats.
(§4) In particular, 4.2 mL of EU-CD formulation were administered to rats (500 mg/kg dose).
(§5) In particular, 320 μL of EU-SL formulation were administered to rats (500 mg/kg dose).
(§6) Free cinnamaldehyde (100 mg) was orally administered by gavage to rats kept fasting since 24 h. In particular, 95 μL of cinnamaldehyde (density = 1.05 g/mL) were dissolved in 905 μL of corn oil and administered to rats (400 mg/kg dose).
(§7) The solid AC-GN formulation (14% w/w cinnamaldehyde) was mixed with palatable food in order to induce their oral intake by the rats kept fasting since 24 h. In particular, the rats assumed a dose of 100 mg of cinnamaldehyde (400 mg/kg) contained in 714 mg of AC-GN.
(§8) After the administrations, blood (100 μL) and CSF samples (50 μL) were serially collected at fixed time points from each rat and treated as described above in order to quantify the compounds.
as §2

in vivo [3] = settings: rat, po
Protocol: as §1, §3, §4, §5, §6, §7, §8

PC12 cells = assay: MTT cell viability assay in neuronal differentiated PC12 cells; assay type: cell-based, rat; settings: 2 h
Protocol: PC12 cell line (RRID:CVCL_0481), derived from rat adrenal gland pheochromocytoma, was a kind gift from Dr Federica Brugnoli from the Department of Translational Medicine, University of Ferrara, Ferrara (Italy). The cells were grown in RPMI-1640 (HiGlutaXL) medium (Microtech, Naples, Italy), supplemented with 100 µg/mL streptomycin and 100 IU/mL penicillin, 10% horse serum (HS), and 5% fetal bovine serum (FBS). PC12 cells were gently removed from the 4 µg/cm^2 collagen IV-coated flask with a rubber scraper, transferred as cell suspension into a Falcon tube and resuspended through a sterile tip to avoid any clumping, then split into separate flasks twice weekly. To differentiate neuronal phenotypes, PC12 cells were seeded in 4 µg/cm^2 collagen IV-coated 12-well plates at a density of 5000 cells/well, and they were then left to adhere to the well for 24 h. […] All the proliferative and differentiated cultures were maintained at 37 °C in a humidified 5% CO2 atmosphere.
The 100% of cell viability was stated as control in the absence of compound. Then, incubation buffer was withdrawn, and 0.2 mL per well of a solution of MTT 500 µg/mL was added to each well and kept for 2 h at 37 °C in a humidified atmosphere at 95% with 5% CO2. After the conversion of the substrate to a chromogenic product by metabolically active cells, the MTT solution was removed, and the purple MTT formazan crystals were solubilized with 0.1 mL/well of DMSO for 60 min at 37 °C. The absorbance of each sample was measured with a multiplate reader spectrophotometer (Sunrise® Microplate Reader, Tecan Trading AG, Männedorf, Switzerland) at 570 nm, using 690 nm as a reference wavelength. Cell viability, proportional to absorbance, was reported as ratio between the absorbance resulting from the treatments and absorbance resulting from the control, considered as 100% of viable cells. Data were plotted as graphs and analyzed using GraphPad software (Prism, version 7.0, San Diego, CA, USA).

[4] = male, Wistar, rat, in vivo, iv, 20 mg/kg

## C=CCc1ccc(O)c(OC)c1 [Eugenol]
In vivo [1]; male, Wistar, rat, in vivo, iv
  Vd: 3.21 ± 0.247 L/kg
  clearance: 114 ± 2 mL/min/kg
  half-life: 19.4 ± 2.1 min
In vivo [1]; [4]
  concentration at 5 min: 3600 ± 200 ng/mL
  concentration at 10 min: 2900 ± 100 ng/mL
In vivo [1]; male, Wistar, rat, in vivo, iv, kel: pseudo first order kinetic elimination rate constant, rat blood, iv 20 mg/kg (eugenol, cinnamaldehyde), 100 mg/kg (D-limonene), eugenol value terminal
  k el: 0.0006 s⁻¹
In vivo [1]; rat blood, iv infusion 2 min, 20 mg/kg eugenol and cinnamaldehyde, 100 mg/kg D-limonene, mean ± SE, n = 4
  C0: concentration in the bloodstream at the end of infusion: 16500 ± 200 ng/mL
In vivo [2]
  Tmax: time of Cmax in the bloodstream: 10 min
In vivo [2]; po, F: absolute bioavailability, oral versus iv AUC normalized to dose
  bioavailability: 4%
In vivo [3]
  AUC: 516 ng·h/mL
  Tmax: time of Cmax in CSF: 20 min
PC12 cells; 25 µM, 37 °C, NGF-differentiated PC12
  increase of cell viability over the untreated cell value: 2.5 times
PC12 cells; 2, 25, 50 and 100 µM, p < 0.0001, no toxic impact
  effect on cell viability compared to untreated control: statistically significant increase in cell viability
PC12 cells; tested 2, 25, 50 and 100 µM
  most effective concentration in increasing cell viability: 25 µM
